Assay results: patent US20090118350A1, “Biomarkers for Identifying Efficacy of Tegaserod in Patients with Chronic Constipation” (priority 2005, published 2009)

System: patients with chronic constipation
Assay: Clinical trial, primary efficacy: mean increase of 1 or more CSBM/week over baseline after 4 weeks of treatment (responders), by subgroup and genotype
Type: in vivo, human
Settings: 6-mg bid vs placebo, 4 weeks
Procedure: Introduction. A clinical trial was performed to evaluate the efficacy of tegaserod (Zelmac®/Zelnorm™) at 6 mg bid (12 mg/day) or 2 mg bid (4 mg/day) vs. placebo by measuring the number of complete spontaneous bowel movements (CSBM) during the first 4 weeks of treatment. Secondary objectives included evaluating the number of CSBM during the entire 12-week treatment period, bowel habits, laxative use, and safety and tolerability issues. The clinical trial design consisted of a 2-week baseline period without medication, a 12-week, randomized, double-blind, placebo-controlled treatment period, and a 4-week withdrawal period without study medication. As part of the clinical trial, DNA was collected from patients at screening for pharmacogenetic analysis to evaluate genetic polymorphisms relating to drug targets and disease aetiology.
Samples. A total 1348 patients were randomized as the intent-to-treat (ITT) population. Blood samples from these patients were collected at the time of patient screening and DNA was extracted using the PUREGENE™ DNA Isolation Kit (D-50K). Of these, samples from 738 randomized patients had good quality genotype data for at least half of the 55 SNPs evaluated.
Clinical assessments. […] The primary efficacy endpoint evaluated was the increase of 1 or more CSBM/week over baseline after 4 weeks of treatment. A secondary endpoint evaluated in this genotyping study was RESP12, the increase of 1 of more CSBM/week over baseline after 12 weeks of treatment. Patients were classified as responders if they met these criteria and had completed at least 7 days of treatment. Additional secondary efficacy assessments were evaluated based on the weekly diary assessments, such as bothersome constipation, bothersome abdominal pain, and satisfaction with bowel habits at the end of the 12-week treatment period (using the baseline value as a co-variant for analysis).
Genotyping. A total of 61 polymorphisms in 23 candidate genes were selected for analysis. Genotyping was performed using the TaqMan® technology for most of the assays, while a few were performed in-house using the Third Wave Technologies Invader Assay technique (see TABLE 2 for assay IDs for all evaluated SNPs). Of the 61 SNPs genotyped, 55 yielded good quality, polymorphic genotypes for use in further evaluation.
Statistical analysis. Statistical analysis was performed using SAS version 8.2 (The SAS Institute, Cary, N.C., USA). Analysis methods included Fisher's Exact tests, analysis of Covariance (ANCOVA), logistic regression, and Mantel-Haenzel tests to determine odds ratios and 95% confidence intervals, with significance established at p<0.05. Calculation of linkage disequilibrium was performed using the GOLD (graphical overview of linkage disequilibrium) method described by Abecasis & Cookson, Bioinformatics 16: 182-3 (2000).
Demographic comparisons. TABLE 3 presents the demographic breakdown of the patients in the overall clinical study and those included in this genotype analysis. Distributions were similar between the genotype population and the total patient population. […] Based on these findings, it was decided to limit analysis to the Caucasian population, which accounted for nearly 90% of all patients, to prevent a confounding effect of race on subsequent genotype analyses. Furthermore, the analysis was also limited to those intent-to-treat patients that were treated with tegaserod or placebo for at least 7 days (total of 635 patients).
Comparison of overall response rates. TABLE 4 presents the overall response for the primary efficacy endpoint (a mean increase in 1 or more CSBM/week over baseline after 4 weeks) for tegaserod 6-mg bid compared with placebo for both the overall patient population and the subgroup of patients for which we had genotype data (all races and Caucasians only). […]

SMILES: [H]/N=C(/NCCCCC)N/N=C/c1c[nH]c2ccc(OC)cc12 [tegaserod, Tegaserod]
- Odds Ratio (All Caucasians (ITT, >=7 days), Age <65, M + F): 2.7
- Odds Ratio (All Caucasians (ITT, >=7 days), Age >=65, M + F): 1.2
- Odds Ratio (All Caucasians (ITT, >=7 days), Age All, Female): 2.6
- Odds Ratio (All Caucasians (ITT, >=7 days), Age All, M + F): 2.5
- Odds Ratio (All Caucasians (ITT, >=7 days), Age All, Male): 1.8
- Odds Ratio (All genotyped (ITT, >=7 days), Age <65, M + F): 2.8
- Odds Ratio (All genotyped (ITT, >=7 days), Age >=65, M + F): 2.4
- Odds Ratio (All genotyped (ITT, >=7 days), Age All, Female): 2.7
- Odds Ratio (All genotyped (ITT, >=7 days), Age All, M + F): 2.7
- Odds Ratio (All genotyped (ITT, >=7 days), Age All, Male): 2.5
- Odds Ratio (All patients (ITT, >=7 days), Age <65, M + F): 2.5
- Odds Ratio (All patients (ITT, >=7 days), Age >=65, M + F): 1.4
- Odds Ratio (All patients (ITT, >=7 days), Age All, Female): 2.4
- Odds Ratio (All patients (ITT, >=7 days), Age All, M + F): 2.3
- Odds Ratio (All patients (ITT, >=7 days), Age All, Male): 1.9
- Odds Ratio (Caucasians genotyped (ITT, >=7 days), Age <65, M + F, all genotypes): 2.8
- Odds Ratio (Caucasians genotyped (ITT, >=7 days), Age >=65, M + F, all genotypes): 2.1
- Odds Ratio (Caucasians genotyped (ITT, >=7 days), Age All, Female, all genotypes): 2.7
- Odds Ratio (Caucasians genotyped (ITT, >=7 days), Age All, M + F, all genotypes): 2.6
- Odds Ratio (Caucasians genotyped (ITT, >=7 days), Age All, Male, all genotypes): 2.5
- Odds Ratio (ITT Caucasians >=7 days, 0 of 14 SNPs): 1.1
- Odds Ratio (ITT Caucasians >=7 days, >=1 of 14 SNPs): 4.1
- Odds Ratio (ITT Caucasians >=7 days, AQP3 (PG ID 1838) genotype CC): 2.4
- Odds Ratio (ITT Caucasians >=7 days, AQP3 (PG ID 1838) genotype CG): 2.6
- Odds Ratio (ITT Caucasians >=7 days, AQP3 (PG ID 1838) genotype GG): 11.3
- Odds Ratio (ITT Caucasians >=7 days, Female (All ages), 0 of the 12 SNPs): 1.5
- Odds Ratio (ITT Caucasians >=7 days, Female (All ages), 1-12 of the 12 SNPs): 4.7
- Odds Ratio (ITT Caucasians >=7 days, HTR3B (PG ID 3755) genotype AA): 2.7
- Odds Ratio (ITT Caucasians >=7 days, HTR3B (PG ID 3755) genotype AC): 2.0
- Odds Ratio (ITT Caucasians >=7 days, HTR3B (PG ID 3755) genotype CC): 8.0
- Odds Ratio (ITT Caucasians >=7 days, HTR4 (PG ID 1746) genotype CC): 2.7
- Odds Ratio (ITT Caucasians >=7 days, HTR4 (PG ID 1746) genotype CT): 2.2
- Odds Ratio (ITT Caucasians >=7 days, HTR4 (PG ID 1746) genotype TT): 8.4
- Odds Ratio (ITT Caucasians >=7 days, HTR4 (PG ID 3743) genotype AA): 3.0
- Odds Ratio (ITT Caucasians >=7 days, HTR4 (PG ID 3743) genotype AC): 2.8
- Odds Ratio (ITT Caucasians >=7 days, HTR4 (PG ID 3743) genotype CC): 14.0
- Odds Ratio (ITT Caucasians >=7 days, HTR4 (PG ID 3747) genotype AA): 3.0
- Odds Ratio (ITT Caucasians >=7 days, HTR4 (PG ID 3747) genotype AT): 2.2
- Odds Ratio (ITT Caucasians >=7 days, HTR4 (PG ID 3747) genotype TT): 5.8
- Odds Ratio (ITT Caucasians >=7 days, HTR4 (PG ID 3753) genotype CC): 2.7
- Odds Ratio (ITT Caucasians >=7 days, HTR4 (PG ID 3753) genotype CT): 2.1
- Odds Ratio (ITT Caucasians >=7 days, HTR4 (PG ID 3753) genotype TT): 7.0
- Odds Ratio (ITT Caucasians >=7 days, HTR4 (PG ID 3754) genotype AA): 3.2
- Odds Ratio (ITT Caucasians >=7 days, HTR4 (PG ID 3754) genotype AT): 1.9
- Odds Ratio (ITT Caucasians >=7 days, HTR4 (PG ID 3754) genotype TT): 4.9
- Odds Ratio (ITT Caucasians >=7 days, HTR4 (PG ID 3756) genotype AA): 2.8
- Odds Ratio (ITT Caucasians >=7 days, HTR4 (PG ID 3756) genotype AC): 2.0
- Odds Ratio (ITT Caucasians >=7 days, HTR4 (PG ID 3756) genotype CC): 8.1
- Odds Ratio (ITT Caucasians >=7 days, M + F (<65), 0 of the 12 SNPs): 1.5
- Odds Ratio (ITT Caucasians >=7 days, M + F (<65), 1-12 of the 12 SNPs): 5.3
- Odds Ratio (ITT Caucasians >=7 days, M + F (>=65), 0 of the 12 SNPs): 0.3
- Odds Ratio (ITT Caucasians >=7 days, M + F (>=65), 1-12 of the 12 SNPs): 7.0
- Odds Ratio (ITT Caucasians >=7 days, M + F (All ages), 0 of the 12 high responder SNPs): 1.3
- Odds Ratio (ITT Caucasians >=7 days, M + F (All ages), 1-12 of the 12 high responder SNPs): 5.4
- Odds Ratio (ITT Caucasians >=7 days, MLN (PG ID 1783) genotype CC): 2.5
- Odds Ratio (ITT Caucasians >=7 days, MLN (PG ID 1783) genotype CT): 2.0
- Odds Ratio (ITT Caucasians >=7 days, MLN (PG ID 1783) genotype TT): 7.2
- Odds Ratio (ITT Caucasians >=7 days, Male (All ages), 0 of the 12 SNPs): 0.3
- Odds Ratio (ITT Caucasians >=7 days, Male (All ages), 1-12 of the 12 SNPs): 22.5
- Odds Ratio (ITT Caucasians >=7 days, SCNN1A (PG ID 3806) genotype GG): 5.0
- Odds Ratio (ITT Caucasians >=7 days, SCNN1A (PG ID 3806) genotype GT): 2.5
- Odds Ratio (ITT Caucasians >=7 days, SCNN1A (PG ID 3806) genotype TT): 1.9
- Odds Ratio (ITT Caucasians >=7 days, SLC12A2 (PG ID 1842) genotype AA): 12.0
- Odds Ratio (ITT Caucasians >=7 days, SLC12A2 (PG ID 1842) genotype AG): 1.1
- Odds Ratio (ITT Caucasians >=7 days, SLC12A2 (PG ID 1842) genotype GG): 2.9
- Odds Ratio (ITT Caucasians >=7 days, SLC12A2 (PG ID 3801) genotype CC): 17.0
- Odds Ratio (ITT Caucasians >=7 days, SLC12A2 (PG ID 3801) genotype CT): 0.8
- Odds Ratio (ITT Caucasians >=7 days, SLC12A2 (PG ID 3801) genotype TT): 3.8
- Odds Ratio (ITT Caucasians >=7 days, TPH1 (PG ID 1756) genotype GG): 5.4
- Odds Ratio (ITT Caucasians >=7 days, TPH1 (PG ID 1756) genotype GT): 2.4
- Odds Ratio (ITT Caucasians >=7 days, TPH1 (PG ID 1756) genotype TT): 1.5
- Odds Ratio (ITT Caucasians >=7 days, TPH1 (PG ID 3784) genotype CC): 1.6
- Odds Ratio (ITT Caucasians >=7 days, TPH1 (PG ID 3784) genotype CT): 2.4
- Odds Ratio (ITT Caucasians >=7 days, TPH1 (PG ID 3784) genotype TT): 5.5
- Odds Ratio (high responder genotypes of the twelve SNPs in six genes): ≥ 5
